From EP4417602A1, “SUBSTITUTED PYRAZOLE CARBOXAMIDES, SALTS THEREOF AND THEIR USE AS HERBICIDALLY ACTIVE SUBSTANCES” (Bayer AG, priority 2023, dated 2024)

Key:
ECHCG [1] = assay: A. Herbicidal pre-emergence action on harmful plants (Tables A); assay type: in vivo, Echinochloa crus-galli; settings: visual grading after ca. 3 weeks vs untreated controls, 100% = plants have died off, 0% = as control plants
Procedure, shortened: (§1)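 Values are visual percent damage relative to untreated controls, scored ca. 3 weeks after the compound was sprayed on the covering soil of sown pots (sandy loam) at rates up to 1280 g/ha, formulated as WP or EC with 0.5% additive.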

POAAN = assay: as above; assay type: in vivo, Poa annua
Procedure, shortened: as §1

ALOMY [2] = assay: as above; assay type: in vivo, Alopecurus myosuroides
Procedure, shortened: as §1

DIGSA = assay: as above; assay type: in vivo, Digitaria sanguinalis
Procedure, shortened: as §1

ECHCG [3] = assay: C. Herbicidal pre-emergence action, weed and crop plants (Tables C); assay type: in vivo, Echinochloa crus-galli
Text: (§2) Seeds of mono- and dicotyledonous weed plants and crop plants were sown, in plastic or organic planting pots, in sandy loam and covered with soil. The compounds according to the invention, formulated in the form of wettable powders (WP) or as emulsifiable concentrates (EC), were applied to the surface of the covering soil as aqueous suspension or emulsion, with the addition of 0.5% of an additive, at an application rate of 6001 of water/ha (converted). Following treatment, the pots were placed in a greenhouse and kept under optimum growth conditions for the test plants. The visual grading of the damage to the test plants was carried out after ca. 3 weeks in comparison to untreated controls (herbicidal effect in percent (%): 100% effect = plants have died off, 0% effect = as control plants). Tables C1 to C12 below show the effects of selected compounds of the general formula (I) according to table 1 on various harmful plants and an application rate corresponding to 320 g/ha or below obtained by the experimental procedure mentioned above. Table C1: pre-emergence activity at 320g/ha against KCHSC in %

LOLRI = assay: as above; assay type: in vivo, Lolium rigidum; settings: application rate 320 g/ha; Table C7a
Text: as §2

ZEAMX = assay: F. Post-emergence effects on crop plants (Tables F); assay type: in vivo, Zea mays; settings: crop plant
Procedure, shortened: (§3)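 Plants were grown in sandy loam in a greenhouse and sprayed post-emergence at the single-leaf stage, 2–3 weeks after sowing. Visual damage was scored after ca. 3 weeks against untreated controls (0% = as control, 100% = dead).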

BRSNW = assay: as above; assay type: in vivo, Brassica napus; settings: crop plant
Procedure, shortened: as §3

ALOMY [4] = assay: C. Herbicidal pre-emergence action, weed and crop plants (Tables C); assay type: in vivo, Alopecurus myosuroides
Text: as §2

ECHCG [5] = assay: B. Herbicidal post-emergence action on harmful plants (Tables B); assay type: in vivo, Echinochloa crus-galli
Procedure, shortened: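 Greenhouse weeds grown in sandy loam were sprayed post-emergence at the one-leaf stage, 2-3 weeks after sowing. Compounds were applied as WP or EC in water with 0.5% additive at 600 L/ha, at 1280 g/ha or below. Visual damage was rated after about 3 weeks versus untreated plants (0-100%).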

[6] = application rate 80 g/ha, Table A7c
[7] = application rate 320 g/ha, Table A7b
[8] = application rate 1280 g/ha, visual grading after ca. 3 weeks vs untreated controls, 100% = plants have died off, 0% = as control plants
[9] = application rate 320 g/ha, Table A9b
[10] = application rate 1280 g/ha, Table A9a
[11] = application rate 320 g/ha, Table A12b
[12] = application rate 1280 g/ha, Table A12a
[13] = application rate 320 g/ha, Table C6a
[14] = application rate 320 g/ha, Table C2a
[15] = application rate 1280 g/ha, Table B2a
[16] = application rate 80 g/ha, Table C6b
[17] = application rate 80 g/ha, Table C2b
[18] = application rate 320 g/ha, Table B2b
[19] = application rate 80 g/ha, Table A12c

Row | SMILES | pre-emergence activity against ECHCG (ECHCG [1]; application rate 320 g/ha) [%] | pre-emergence activity against ECHCG (ECHCG [1]; application rate 1280 g/ha) [%] | pre-emergence activity against POAAN (POAAN; [6]) [%] | pre-emergence activity against POAAN (POAAN; [7]) [%] | pre-emergence activity against POAAN (POAAN; [8]) [%] | pre-emergence activity against ALOMY (ALOMY [2]; [9]) [%] | pre-emergence activity against ALOMY (ALOMY [2]; [10]) [%] | pre-emergence activity against DIGSA (DIGSA; [11]) [%] | pre-emergence activity against DIGSA (DIGSA; [12]) [%] | pre-emergence activity against ECHCG (ECHCG [3]; [13]) [%] | pre-emergence activity against LOLRI (LOLRI) [%] | post-emergence activity against ZEAMX in % (ZEAMX; application rate 80 g/ha) [%] | post-emergence activity against ZEAMX in % (ZEAMX; application rate 320 g/ha) [%] | post-emergence activity against BRSNW in % (BRSNW; application rate 320 g/ha) [%] | pre-emergence activity against ALOMY (ALOMY [4]; [14]) [%] | post-emergence activity against ECHCG (ECHCG [5]; [15]) [%] | pre-emergence activity against ECHCG (ECHCG [3]; [16]) [%] | pre-emergence activity against ECHCG (ECHCG [1]; application rate 80 g/ha) [%] | pre-emergence activity against ALOMY (ALOMY [4]; [17]) [%] | other results
1 | COCc1nn2c(c1C(=O)N1CCCC1Cc1ccccc1F)CCC2 (racemic) [Example I-022] | 90 | 100 | 90 | 100 | 100 | 90 | 90 | 90 | 90 | 90 | 100 | 0 | 0 | 0 | – | – | – | – | – | –
2 | Cn1cc(C(=O)N2CCCC2Cc2ccc(F)cc2F)c(COc2ccccc2)n1 (racemic) [Example I-008] | – | 90 | 100 | 100 | 100 | 100 | 100 | 90 | 100 | 90 | – | 0 | 0 | 10 | 100 | – | – | – | – | –
3 | COCc1nn(C(=O)OC(C)(C)C)cc1C(=O)N1CCCC1Cc1ccccc1F (racemic) [Example I-040] | 90 | 100 | – | 100 | 100 | – | 90 | 90 | 100 | 90 | 100 | 0 | 0 | 0 | 80 | 90 | 80 | – | – | –
4 | Cn1cc(C(=O)N2CCCC2Cc2ccccc2F)c(COc2ccccc2)n1 (racemic) [Example I-006] | – | 90 | 100 | 100 | 100 | 90 | 100 | 90 | 100 | – | – | 10 | 20 | 10 | 90 | 100 | – | – | – | –
5 | COCc1nn(C)cc1C(=O)N1CCCC1Cc1ccccc1F (racemic) [Example I-002] | 100 | 100 | 100 | 100 | 100 | – | – | – | – | 90 | 90 | 0 | 0 | – | 90 | 90 | – | 90 | – | post-emergence activity against BRSNW in % (BRSNW; application rate 80 g/ha): 10%
6 | COCc1nn(C)cc1C(=O)N1CCCC1C(O)c1ccccc1F (single isomer, unassigned) [Example I-053] | 90 | 90 | – | 90 | 100 | – | – | 90 | 90 | 100 | 90 | 0 | – | 20 | 90 | 90 | 90 | – | 80 | –
7 | C=C(c1ccccc1F)C1CCCN1C(=O)c1cn(C)nc1COC (racemic) [Example I-023] | 90 | 100 | 100 | 100 | 100 | – | 90 | 90 | 90 | 90 | 100 | 0 | 20 | 0 | 100 | 90 | – | – | – | –
8 | COCc1c(C(=O)N2CCCC2Cc2ccccc2Cl)cnn1C (racemic) [Example I-170] | 90 | 90 | 100 | 100 | 100 | – | 90 | – | – | 90 | 90 | 0 | – | 0 | 90 | 90 | 90 | 90 | 90 | post-emergence activity against ECHCG (ECHCG [5]; [18]): 90%
9 | COCc1nn(C)cc1C(=O)N1CCCC1Cc1ccccc1F (single isomer, unassigned) [Example I-003] | 100 | 100 | 100 | 100 | 100 | 100 | 100 | 100 | 100 | 90 | 90 | – | – | 0 | 100 | 90 | 90 | 100 | 90 | pre-emergence activity against DIGSA (DIGSA; [19]): 100%; post-emergence activity against ECHCG (ECHCG [5]; [18]): 90%
10 | COCc1c(C(=O)N2CCCC2Cc2ccccc2F)cnn1C (single isomer, unassigned) [Example I-157] | 100 | 100 | 100 | 100 | 100 | 100 | 100 | 100 | 100 | 80 | 90 | 0 | 0 | 0 | 90 | – | – | 100 | – | pre-emergence activity against DIGSA (DIGSA; [19]): 100%
